Experimental findings from US10624871B2, “Bismuth(III) compounds and methods thereof” (priority 2016, dated 2020) are described below.

For experiment [1], the system named is K. pneumonia (NDM-1+). Briefly: Microdilution MIC and MBC assay, FICI. It is filed as cell-based. As to conditions: Bi(III) compound at 32 μg mL^−1, K. pneumonia (NDM-1+). A general note: Broth dilution looks for growth in wells or tubes with falling amounts of substance.
The subject of experiment [2] is E. coli (NDM-1+). In words: Time kill assay. Conditions: combination 16 μg mL^−1 MER and 32 μg mL−1 CBS, endpoint 24 hrs. The class given is cell-based. The method, then:
Time kill assay was used to further explore the synergy between MER and Bi(III) compounds which were represented by CBS herein. In a typical assay, the concentrations of the compounds used in this test represent as follows: 16 μg mL^−1 MER, 32 μg mL−1 CBS. Bacteria were cultured for overnight and diluted 1:250 into LB broth at 37° C. for 3 hrs to reach log phase. The initial bacterial concentration was adjusted to ˜10^7 CFU mL^−1 according to standard curve. Tested compounds either alone or in combination was added to 20 mL of freshly prepared bacterial solution in a 50 ml tube, and incubate at 37° C. LB broth with no compounds served as a positive control. Aliquots of […] suspension were withdrawn after different time intervals (0, 1, 2, 4, 6, 8, and 24 hrs). Bacterial concentrations were estimated from colony counts by serial dilution in phosphate-buffered saline (PBS) and plating on LB agar. All assays were triplicated and performed three times in different days. Data from three independent experiments were averaged and plotted as log10 CFU mL^−1 versus time (h) for each time point over 24 hrs as shown in FIG. 12.

Experiment [3] concerns E. coli (NDM-1+). In words: Microdilution MIC and MBC assay, checkerboard FICI. The class given is cell-based. Conditions: Bi(III) compound at 32 μg mL^−1, E. coli (NDM-1+).
The subject of experiment [4] is E. coli (NDM-1+). Briefly: In vitro cell infection assay in MDCK cells. The class given is cell-based. The method, then: To further evaluate the antimicrobial efficacy of CBS in combination with MER, we exploited the in vitro bacterial infection model in mammalian cell. Typically, MDCK cells were cultured in minimum essential Media (MEM) supplemented with fetal bovine serum (FBS, 10%) and grown at 37° C. in the 5% CO2 humidified atmosphere for three days. The MDCK cells were then washed three times with phosphate buffer saline (PBS) solution, liberated with trypsin-EDTA (0.25%) and re-suspended by culture medium. About 500 μL of re-suspended cells were seeded in 24-well plates and incubated as described above for 48 hrs to ensure confluency, resulting in about 1.0×10^5 cells per well by typan blue assay. The freshly grown logarithmic E. coli (NDM-1^+) bacterial cells were washed with PBS for three times and re-suspended in MEM/10% FBS. The density was adjusted to 2×10^7 CFU mL^−1. Then 500 μL of bacterial suspension was added to each well and substituted for the previous MDCK culture medium. […]
For those cell-invaded bacteria experiments, the infected cells were incubated in culture medium supplemented with 100 μg mL^−1 ciprofloxacin for 1 h to remove extracellular bacteria. […] The assay was performed in triplicate, repeated three times and the results were expressed as average ±SD.

Experiment [5] concerns C. freundii (NDM-1+). In words: Microdilution MIC and MBC assay, FICI. The class given is cell-based. Conditions: Bi(III) compound at 32 μg mL^−1, C. feudii (NDM-1+).
Experiment [6] deals with E. coli (IMP-4+). Briefly: Microdilution MIC and MBC assay, FICI. It is filed as cell-based. Conditions: Bi(III) compound at 32 μg mL−1, E. coli (IMP-4+).
Experiment [7] has as its system E. coli (NDM-1−). In words: Checkerboard MIC analysis, NDM-1-null strain. As to conditions: NDM-1-null E. coli strain. The class given is cell-based. The method, then: FIGS. 10 (a)-(b) show a heat map of checkerboard MIC analysis over MER and CBS against clinical isolates of (a) E. coli (NDM-1^+) and (b) E. coli (NDM-1^−).
MIC values of either antibiotics or Bi(III) compounds were determined firstly by standard broth micro-dilution method (Clinical and Laboratory Standards Institute (CLSI) M100-S20, 2010). Briefly, bacteria cells were cultured in LB broth overnight at 37° C. at 250 rpm and the optical density was measured at 600 nm (OD600) using a microtiter plate reader. The bacteria density was adjusted to about 1×10^6 CFU mL^−1 and checked by CFU counting on agar plates afterwards. Tested compounds were added triplicately into individual wells of flat-bottomed 96-well plates and performed two-fold serial dilution, followed by addition of prepared bacterial inoculum. […] The MIC was determined as the lowest concentration of compounds that could inhibit the growth of microorganism by both visual reading and OD600 measurement. […]
For the test of drug combination, antibiotics and Bi(III) compounds were co-administrated at concentrations up to 8 times higher than the MIC of the compounds tested alone. […] The FICIs were determined based on the following equation: FICI=FICA+FICB=CA/MICA+CB/MICB where MICA and MICB are the MIC values of compound A and B when functioning alone, and CA and CB are the concentrations of compound A and B at the effective combinations. […]

For experiment [8], the target named is NDM-1 (Klebsiella pneumoniae, UniProt C7C422). Briefly: Hydrolysis rates of meropenem by native NDM-1 and Bi-bound NDM-1. The class given is biochemical. Also on record: unit not given here. As to conditions: MER hydrolysis by Bi-bound NDM-1.
Sequence of NDM-1 (C7C422 whole entry, looked up): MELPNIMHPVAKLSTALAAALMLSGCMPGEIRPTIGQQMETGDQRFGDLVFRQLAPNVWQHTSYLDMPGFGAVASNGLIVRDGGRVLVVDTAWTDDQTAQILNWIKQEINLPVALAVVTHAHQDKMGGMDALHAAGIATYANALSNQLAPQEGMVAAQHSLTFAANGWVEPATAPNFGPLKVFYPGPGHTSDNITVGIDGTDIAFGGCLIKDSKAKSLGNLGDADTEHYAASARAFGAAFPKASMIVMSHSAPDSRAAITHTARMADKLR

On to `O=C([O-])CC([O-])(CC(=O)[O-])C(=O)[O-].O=C([O-])CC([O-])(CC(=O)[O-])C(=O)[O-].[Bi+3].[Bi+3].[K+]` [Complex 10, colloidal bismuth subcitrate], for which the “MBC of MER with Bi(III) compound” value in experiment [1] came to 8 µg/mL; in experiment [3] it was 4 µg/mL; in experiment [5], 1 µg/mL; in experiment [6], 8 µg/mL. In addition, the “MIC of MER with Bi(III) compound” value was 4 µg/mL in experiment [1], 2 µg/mL in experiment [3], 0.5 µg/mL in experiment [5] and 4 µg/mL in experiment [6]. In addition, the “lowering of bacteria density versus single components” value in experiment [2] is “more than 1000 fold”. In addition, the “lowering of intracellular bacterial density compared with mere MER, cell-invaded model” value in experiment [4] (MER (2×MIC) and CBS) is 9.22 fold. Further, in experiment [4] (MER in the presence of CBS (32 μg mL^−1)), the “bacterial load, cell-associated model” value is listed as ≤ 10^4 CFU. Also, the “synergy of MER and CBS in checkerboard MIC” value in experiment [7] is given as “no inhibition was observed”. For the same compound, the Vmax in experiment [8] was determined as 0.26 ± 0.01.
